# From US12042499B2, “Administration of aurora kinase inhibitor and chemotherapeutic agents” (Millennium Pharmaceuticals, Inc., priority 2015, dated 2024)
# Columns and labels:
# Type in all cases: in vivo, female Athymic NCr nu/nu mice
# [1] = test system: NCI-H82 small cell lung tumor; experiment: NCI-H82 xenograft model study 1: alisertib and carboplatin
# Method: NCI-H82 1: […] Those animals selected with tumors in the proper volume range were randomized into 9 treatment and control groups (n=10/group) so that the median tumor volumes on the first day of treatment were as close as possible (206-219 mm^3). […] The suspension was diluted to 4 mg/mL with 2% sodium bicarbonate (NaHCO3) in WFI. The final composition of the alisertib vehicle was 10% HPBCD/1% NaHCO3 in WFI. The 4 mg/mL solution was diluted to 2 mg/mL with complete vehicle for the lower dose. The alisertib dosing formulations were stored in brown bottles at room temperature during the dosing period. […] A 10 mg/mL stock solution of carboplatin (Hospira, Inc.) was diluted each day of treatment with saline. […] Tumors were measured twice weekly using vernier calipers. […] Tumor size and body weight were measured approximately twice a week for the duration of the study. […] Tumor growth continued to be monitored after the dosing period in some studies. […] For each animal, the log tumor volume at the day of treatment initiation is subtracted from the log tumor volume on the subsequent days. This difference vs. time is used to calculate an area under the curve (AUC) for each animal using the trapezoid rule. In instances when an animal in a treatment group is removed early from the study, the last observed tumor value is carried forward through all subsequent time points. The synergy score for the combination of agents A and B is defined as 100*(mean(AUCAB)-mean(AUCA)-mean(AUCB)+mean(AUCctl))/mean(AUCctl): where AUCAB, AUCA, AUCB, and AUCctl are the AUC values for animals in the combination group, the A group, the B group, and the control group, respectively. The standard error of the synergy score is computed based on the variation in the AUC values among the animals. […] If the P-value is above 0.05, then the combination is considered to be additive. If the P-value is below 0.05, and the synergy score is less than zero, then the combination is considered to be synergistic. If the P-value is below 0.05 and the synergy score was greater than zero, but the mean AUC for the combination was […] than the lowest mean AUC among the two single agent treatments, then the combination was sub-additive. If the P-value is below 0.05 and if the synergy score was greater than zero, and the mean AUC for the combination was greater than the mean AUC for at least one of the single agent treatments, then the combination was antagonistic. […] In the combination treatment groups alisertib was administered first, followed immediately by the administration of carboplatin. One group served as a vehicle-treated control group (Group 1) receiving PO treatment with the vehicle used for administration of alisertib in treatment groups on a QDx21 schedule.
# [2] = test system: NCI-H82 small cell lung tumor; experiment: NCI-H82 xenograft model study 2: alisertib and cisplatin
# Text: NCI-H82 2: A thirty-to-forty mg fragment of NCI-H82 small cell lung tumor, propagated in an in vivo passage, was implanted SC in the area of the right flank of female Athymic NCr nu/nu mice (age 5 weeks, Charles River Laboratories, Wilmington, MA) using a 12-gauge trocar needle. Tumors were allowed to reach 100-245 mm^3 in volume before the start of treatment. A sufficient number of mice were implanted so that tumors in a volume range as narrow as possible were selected for the trial on the day of treatment initiation (day 14 after tumor implantation, designated as SD, or Day 0). Those animals selected with tumors in the proper volume range were randomized into 9 treatment and control groups (n=10/group) so that the median tumor volumes on the first day of treatment were as close as possible (196-198 mm^3).
# (§1) An 8 mg/mL suspension of alisertib was formulated weekly by adding a half volume of 20% HPBCD in water for injection (WFI) to the alisertib powder, then mixing by vortexing, and sonicating for one minute. The suspension was diluted to 4 mg/mL with 2% sodium bicarbonate (NaHCO3) in WFI. The final composition of the alisertib vehicle was 10% HPBCD/1% NaHCO3 in WFI. The 4 mg/mL solution was diluted to 2 mg/mL with complete vehicle for the lower dose. The alisertib dosing formulations were stored in brown bottles at room temperature during the dosing period. All alisertib injections were administered on the basis of exact animal body weight on each day of treatment, using an injection volume of 0.05 mL/10 g body weight.
# (§2) A 1 mg/mL stock solution of cisplatin (Cisplatin Injection, PCH […]) was diluted each day of treatment with saline to 0.8 and 0.4 mg/mL. Cisplatin injections were administered on the basis of exact animal body weight on each day of treatment, using an injection volume of 0.05 mL/10 g body weight.
# (§3) Tumors were measured twice weekly using vernier calipers. Tumor volumes were calculated using standard procedures V=W^2×L/2). When mean tumor volumes reached approximately 206-219 mm^3 for NCI-H82 1, 196-198 mm^3 for NCI-H82 2, or 169-174 mm^3 for NCI-H69, mice were randomized into groups of n=10/arm as described in the tables below, and injected with vehicle, alisertib or agents (cisplatin, or carboplatin), or the combination of alisertib plus one of the agents, at various doses and schedules as described below in Tables 1a, 2a and 3a. Tumor size and body weight were measured approximately twice a week for the duration of the study. […] Tumor growth continued to be monitored after the dosing period in some studies. […]
# (§4) Measurements from the day of treatment initiation to Day 20 or Day 21 following treatment initiation are analyzed as specified in Tables below. […]
# [3] = test system: NCI-H69 small cell lung tumor; experiment: NCI-H69 xenograft model: alisertib and cisplatin
# Text: NCI-H69: A thirty-to-forty mg fragment of NCI-H69 small cell lung tumor, propagated in an in vivo passage, was implanted SC in the area of the right flank of female Athymic NCr nu/nu nice (age 6 weeks, Charles River Laboratories, Frederick, MD) using a 12-gauge trocar needle. Tumors were allowed to reach 100-245 mm^3 in volume before the start of treatment. A sufficient number of mice were implanted so that tumors in a volume range as narrow as possible were selected for the trial on the day of treatment initiation (day 24 after tumor implantation, designated as SD, or Day 0). Those animals selected with tumors in the proper volume range were randomized into 9 treatment and control groups (n=10/group) so that the mean tumor volumes on the first day of treatment were as close as possible (169-174 mm^3).
# as §1, §2, §3, §4
smiles,measurement,setting,value
"COc1cc(Nc2ncc3c(n2)-c2ccc(Cl)cc2C(c2c(F)cccc2OC)=NC3)ccc1C(=O)O [Alisertib, 4-{[9-chloro-7-(2-fluoro-6-methoxyphenyl)-5H-pyrimido[5,4-d][2]benzazepin-2-yl]amino}-2-methoxybenzoic acid]",Tumor Volume Day 21,[1]; 10 mg/kg Alisertib QDx21 PO,1701 mm^3
same,Tumor Volume Day 21,[1]; 20 mg/kg Alisertib QDx21 PO,1640 mm^3
same,Tumor Volume Day 20,[2]; 10 mg/kg Alisertib QDx21 PO,1578 mm^3
same,Tumor Volume Day 20,[2]; 20 mg/kg Alisertib QDx21 PO,1461 mm^3
same,Tumor Volume Day 20,[3]; 10 mg/kg Alisertib QDx21 PO,374 mm^3
same,Tumor Volume Day 20,[3]; 20 mg/kg Alisertib QDx21 PO,149 mm^3
"N.N.O=C([O-])C1(C(=O)[O-])CCC1.[Pt+2] [Carboplatin, carboplatin]",Tumor Volume Day 21,[1]; 25 mg/kg Carboplatin Q7Dx3 IP,1373 mm^3
same,Tumor Volume Day 21,[1]; 75 mg/kg Carboplatin Q7Dx3 IP,965 mm^3
"N.N.[Cl][Pt][Cl] [Cisplatin, cisplatin]",Tumor Volume Day 20,[2]; 2 mg/kg Cisplatin Q4Dx3 IP,1429 mm^3
same,Tumor Volume Day 20,[2]; 4 mg/kg Cisplatin Q4Dx3 IP,1270 mm^3
same,Tumor Volume Day 20,[3]; 2 mg/kg Cisplatin Q4Dx3 IP,604 mm^3
same,Tumor Volume Day 20,[3]; 4 mg/kg Cisplatin Q4Dx3 IP,300 mm^3
